In patent US8415469B2, “Compounds and methods for kinase modulation, and indications therefor” (Plexxikon Inc., priority 2005, dated 2013):

Key:
Type in all cases: biochemical
Abl = molecular target: T1, Abl (Homo sapiens, UniProt P00519); assay: AlphaScreen kinase assay, Abl; conditions: read-out: activity toward kinase Abl, IC50
T1 construct: P1121. pET-SPEC BI-PTP Abl G227-V515-X; His6 (N); made in house; host or cells: E. coli (PTP1B co-expressed)
T1 sequence (P00519 with tags, fused parts or gaps): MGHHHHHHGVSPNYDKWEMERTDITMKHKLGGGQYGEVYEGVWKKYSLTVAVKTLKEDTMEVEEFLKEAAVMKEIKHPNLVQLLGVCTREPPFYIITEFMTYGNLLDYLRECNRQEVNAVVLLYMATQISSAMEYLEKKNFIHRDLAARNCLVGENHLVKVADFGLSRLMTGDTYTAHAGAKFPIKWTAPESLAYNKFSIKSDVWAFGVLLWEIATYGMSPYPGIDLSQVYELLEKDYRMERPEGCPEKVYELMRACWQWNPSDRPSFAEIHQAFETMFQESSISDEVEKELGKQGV
Excerpt: (§1) AlphaScreen assay was used to screen additional kinases. The assay is similarly dependent on the phosphorylation of a peptide substrate. In this assay, an antibody that recognizes phosphorylated substrate is bound to an acceptor bead. The peptide substrate is attached to biotin, which binds to a donor head that contains streptavidin. Thus phosphorylated substrate is bound by antibody and streptavidin, bringing the donor and acceptor heads into close proximity when kinase is not inhibited. The donor produces singlet oxygen which results in emission from the acceptor when they are in close proximity. Conversely, when kinase is inhibited, the donor and acceptor beads are not associated and the emission from the acceptor is reduced.
(§2) AlphaScreen assays were done using compounds dissolved in DMSO to a concentration of 20 mM. The compounds were diluted accordingly to the desired final concentrations in each sample well, using 1:3 serial dilution for a total of 8 concentration points.

B-Raf V600E = molecular target: T2, B-Raf V600E (Homo sapiens, UniProt P15056, V600E); assay: AlphaScreen kinase assay, B-Raf V600E; conditions: read-out: IC50, activity toward kinase B-Raf V600E
T2 construct: P4254. pFastBacBD-CDC37 BRAF D437-K722-X, V600E; His6 with pFastBac HT leader (TEV site) (N); made in house; host or cells: Sf9 (baculovirus; chaperone CDC37 co-expressed)
T2 sequence (P15056 with tags, fused parts or gaps V600E): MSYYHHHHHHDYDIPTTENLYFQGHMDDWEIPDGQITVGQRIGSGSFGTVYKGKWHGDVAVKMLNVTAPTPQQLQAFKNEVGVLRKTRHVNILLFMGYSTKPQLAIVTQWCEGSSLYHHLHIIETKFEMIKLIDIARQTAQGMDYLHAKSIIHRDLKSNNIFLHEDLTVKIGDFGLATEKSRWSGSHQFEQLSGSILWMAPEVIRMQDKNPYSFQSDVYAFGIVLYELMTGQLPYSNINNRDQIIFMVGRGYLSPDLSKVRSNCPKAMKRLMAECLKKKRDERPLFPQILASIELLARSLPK

Btk = molecular target: T3, Btk (Homo sapiens, UniProt Q06187); assay: Z'-Lyte FRET kinase assay (Invitrogen), Btk; conditions: read-out: IC50, activity toward kinase Btk
T3 construct: purchased Invitrogen (assay run by Invitrogen)
Excerpt: For example, direct radiometric, indirect FRET or AlphaScreen assays may be used to assess the level of phosphorylation of a substrate in the presence of test compounds in order to determine the inhibitory affect of the compound on the kinase. […] For these assays, compounds of the invention were screened by Invitrogen using Z′-Lyte™ kinase assay.
Briefly, the Invitrogen kinase assay involves use of a specific peptide substrate optimized for each kinase, containing a fluorophore at each end that make up the FRET pair. The peptide sensitivity to proteolytic cleavage depends on phosphorylation of the peptide. Non-phosphorylated peptide is cleaved by a protease while peptide phosphorylated by the kinase is not cleaved. Cleavage of the peptide disrupts the FRET between the donor (coumarin) and acceptor (fluorescein) fluorophores, resulting in an increase in the ratio of donor emission to acceptor emission. The emission ratio of coumarin to fluorescein is used to assess the reaction progress. […] Thus, the assay involves a kinase reaction in the presence of varying concentrations of a given compound, a development reaction with site specific protease, and detection of the fluorescent emission ratio of coumarin and fluorscein. […] Reaction conditions for each kinase are determined to provide optimal reaction times, incubation temperature, kinase and ATP concentrations. Test samples are made up in 1× kinase buffer (50 mM HEPES pH 7.5, 50 mM MgCl2, 5 mM EGTA, 0.05% BRIJ-35) and compound at desired concentration prepared in DMSO such that the final DMSO is 1%. […] All kinase except for MAP2K1 were at 10 μM ATP in the kinase reaction, while MAP2K1 was at 100 μM. Samples are mixed and the kinase reaction is incubated 1 hour at room temperature, after which 5 μl of development solution is added and mixed. After incubation for another 1 hour at room temperature, 5 μl of stop reagent is added to each sample and mixed. The fluorescence signals are measured to determine the emission ratio.

Jnk3 = molecular target: T4, Jnk3 (Homo sapiens, UniProt P53779); assay: AlphaScreen kinase assay, Jnk3; conditions: read-out: IC50, activity toward kinase Jnk3
T4 construct: purchased Upstate Biotechnology
T4 sequence (P53779 whole entry): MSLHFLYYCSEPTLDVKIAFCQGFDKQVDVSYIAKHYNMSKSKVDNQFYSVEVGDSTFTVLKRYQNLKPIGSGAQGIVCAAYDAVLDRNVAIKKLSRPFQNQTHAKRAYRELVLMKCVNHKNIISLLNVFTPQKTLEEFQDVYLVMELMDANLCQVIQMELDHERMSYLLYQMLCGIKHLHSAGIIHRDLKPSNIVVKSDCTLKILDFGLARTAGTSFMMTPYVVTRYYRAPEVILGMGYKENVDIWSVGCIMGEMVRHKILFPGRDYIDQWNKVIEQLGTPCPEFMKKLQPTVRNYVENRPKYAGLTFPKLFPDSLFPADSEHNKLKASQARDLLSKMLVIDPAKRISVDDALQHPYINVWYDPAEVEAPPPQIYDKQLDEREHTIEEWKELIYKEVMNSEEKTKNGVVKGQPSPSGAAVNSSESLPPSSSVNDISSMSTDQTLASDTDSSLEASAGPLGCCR

Ret = molecular target: T5, Ret (Homo sapiens, UniProt P07949); assay: AlphaScreen kinase assay, Ret; conditions: read-out: IC50, activity toward kinase Ret
T5 construct: P1378.pET-SF BI-PTP RET H661-R1012 HIS; made in house
T5 sequence (P07949 with tags, fused parts or gaps): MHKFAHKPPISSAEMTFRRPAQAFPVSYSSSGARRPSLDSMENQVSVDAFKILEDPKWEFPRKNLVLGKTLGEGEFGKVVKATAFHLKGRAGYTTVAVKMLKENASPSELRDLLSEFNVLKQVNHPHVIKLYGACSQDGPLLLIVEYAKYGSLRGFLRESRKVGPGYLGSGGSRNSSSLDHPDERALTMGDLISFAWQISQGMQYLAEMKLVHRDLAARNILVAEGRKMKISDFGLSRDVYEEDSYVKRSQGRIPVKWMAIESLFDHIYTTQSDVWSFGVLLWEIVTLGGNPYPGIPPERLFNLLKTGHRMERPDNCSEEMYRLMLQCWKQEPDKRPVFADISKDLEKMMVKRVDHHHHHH

Yes = molecular target: T6, Yes (Homo sapiens, UniProt P07947); assay: Z'-Lyte FRET kinase assay (Invitrogen), Yes; conditions: read-out: IC50, activity toward kinase Yes
T6 construct: purchased Invitrogen (Carlsbad, Calif.), screening service
Method in brief: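 10 μM ATP, 2 μM peptide, 1% DMSO final; HEPES pH 7.5 buffer with MgCl2/EGTA/BRIJ-35. Kinase rxn 1 h RT, protease development 1 h RT, stop, read donor/acceptor ratio. Compound titrated.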

Zap70 = molecular target: T7, Zap70 (Homo sapiens, UniProt P43403); assay: AlphaScreen kinase assay, Zap70; conditions: read-out: IC50, activity toward kinase Zap70
T7 construct: P1868.pFastBac1 ZAP70 D327-G606 HIS, WT; His7 (HHHHHHH) (C); made in house
T7 sequence (P43403 with tags, fused parts or gaps): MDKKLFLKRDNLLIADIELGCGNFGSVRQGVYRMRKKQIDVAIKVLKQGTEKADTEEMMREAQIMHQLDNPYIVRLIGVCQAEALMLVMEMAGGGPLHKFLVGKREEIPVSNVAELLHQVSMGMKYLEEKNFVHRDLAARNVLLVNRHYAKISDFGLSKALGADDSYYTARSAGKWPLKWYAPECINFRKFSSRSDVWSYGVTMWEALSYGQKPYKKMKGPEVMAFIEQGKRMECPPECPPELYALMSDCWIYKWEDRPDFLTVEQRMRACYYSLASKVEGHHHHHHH
Method in brief: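 Stock 20 mM compound in DMSO, diluted 1:3 serially to 8 final concentrations. Kinase phosphorylates biotinylated peptide; donor (streptavidin) and acceptor (anti-phospho antibody) beads then associate. Reduced acceptor emission indicates inhibition.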

Kdr = molecular target: T8, Kdr (Homo sapiens, UniProt P35968); assay: Z'-Lyte FRET kinase assay (Invitrogen), Kdr; conditions: read-out: IC50, activity toward kinase Kdr
T8 construct: purchased Invitrogen (assay run by Invitrogen)
T8 sequence (P35968 20-1356): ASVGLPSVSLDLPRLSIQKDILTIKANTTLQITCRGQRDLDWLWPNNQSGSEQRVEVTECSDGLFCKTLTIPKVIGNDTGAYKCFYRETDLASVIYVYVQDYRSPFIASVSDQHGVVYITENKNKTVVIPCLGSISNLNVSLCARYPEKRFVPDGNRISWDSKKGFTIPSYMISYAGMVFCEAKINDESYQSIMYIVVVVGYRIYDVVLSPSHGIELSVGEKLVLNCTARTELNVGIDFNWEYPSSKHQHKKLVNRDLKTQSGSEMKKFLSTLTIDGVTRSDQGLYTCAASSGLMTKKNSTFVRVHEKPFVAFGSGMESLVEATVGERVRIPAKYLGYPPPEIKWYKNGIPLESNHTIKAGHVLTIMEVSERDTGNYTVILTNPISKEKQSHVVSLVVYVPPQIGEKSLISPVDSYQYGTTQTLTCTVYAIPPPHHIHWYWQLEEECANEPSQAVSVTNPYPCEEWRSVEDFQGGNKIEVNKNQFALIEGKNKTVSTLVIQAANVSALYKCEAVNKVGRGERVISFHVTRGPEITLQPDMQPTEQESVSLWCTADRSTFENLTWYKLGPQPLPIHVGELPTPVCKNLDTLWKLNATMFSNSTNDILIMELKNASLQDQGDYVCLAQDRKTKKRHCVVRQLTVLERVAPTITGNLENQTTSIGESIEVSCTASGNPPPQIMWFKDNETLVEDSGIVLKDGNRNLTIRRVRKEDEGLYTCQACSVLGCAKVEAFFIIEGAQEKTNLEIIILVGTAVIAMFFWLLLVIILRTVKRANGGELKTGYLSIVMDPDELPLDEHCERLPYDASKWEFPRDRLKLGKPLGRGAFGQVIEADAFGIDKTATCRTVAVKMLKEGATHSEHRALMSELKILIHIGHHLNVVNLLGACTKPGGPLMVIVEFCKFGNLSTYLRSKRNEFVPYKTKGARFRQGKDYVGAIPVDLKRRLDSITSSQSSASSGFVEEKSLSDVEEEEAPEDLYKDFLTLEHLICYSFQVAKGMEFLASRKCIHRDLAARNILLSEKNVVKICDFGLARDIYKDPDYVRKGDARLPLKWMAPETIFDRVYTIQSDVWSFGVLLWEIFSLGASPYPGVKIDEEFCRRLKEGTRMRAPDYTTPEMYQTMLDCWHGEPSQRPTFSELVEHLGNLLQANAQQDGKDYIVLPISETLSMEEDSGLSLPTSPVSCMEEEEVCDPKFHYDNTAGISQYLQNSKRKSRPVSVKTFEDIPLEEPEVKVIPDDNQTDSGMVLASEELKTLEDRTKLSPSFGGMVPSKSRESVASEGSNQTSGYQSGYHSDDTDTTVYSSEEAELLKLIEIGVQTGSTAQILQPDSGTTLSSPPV

Met = molecular target: T9, Met (Homo sapiens, UniProt P08581); assay: AlphaScreen kinase assay, Met; conditions: read-out: IC50, activity toward kinase Met
T9 construct: P1818.pETN6 BI-PTP MET G1056-G1364-X WT; His6 (N); made in house; host or cells: E. coli (PTP1B co-expressed)
T9 sequence (P08581 with tags, fused parts or gaps): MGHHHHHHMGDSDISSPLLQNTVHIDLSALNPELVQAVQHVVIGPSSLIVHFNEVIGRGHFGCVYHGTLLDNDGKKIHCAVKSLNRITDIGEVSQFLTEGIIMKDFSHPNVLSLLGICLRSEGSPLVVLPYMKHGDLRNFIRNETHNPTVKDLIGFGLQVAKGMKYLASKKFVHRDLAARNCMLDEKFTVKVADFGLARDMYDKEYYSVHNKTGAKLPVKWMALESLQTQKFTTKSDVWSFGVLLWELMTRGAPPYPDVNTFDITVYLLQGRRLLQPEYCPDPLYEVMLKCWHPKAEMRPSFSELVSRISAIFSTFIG
Excerpt: as §1, §2

FGFR1 = molecular target: T10, FGFR1 (Homo sapiens, UniProt P11362, C488A/C584S); assay: AlphaScreen kinase assay, FGFR1; conditions: read-out: IC50, activity toward kinase FGFR
T10 construct: P1351.pET N6 BI-PTP FGFR A458-E765-X C488A, C584S; made in house; host or cells: E. coli (PTP1B co-expressed)
T10 sequence (P11362 458-765 C488A/C584S): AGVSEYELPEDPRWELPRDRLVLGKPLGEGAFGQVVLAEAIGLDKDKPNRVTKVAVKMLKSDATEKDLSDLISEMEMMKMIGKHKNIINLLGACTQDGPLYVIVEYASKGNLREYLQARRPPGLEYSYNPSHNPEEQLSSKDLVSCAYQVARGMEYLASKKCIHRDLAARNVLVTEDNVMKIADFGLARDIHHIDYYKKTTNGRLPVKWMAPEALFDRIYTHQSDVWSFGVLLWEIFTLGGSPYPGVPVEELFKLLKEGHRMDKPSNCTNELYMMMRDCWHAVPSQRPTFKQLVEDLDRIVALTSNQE

Kit = molecular target: T11, Kit (Homo sapiens, UniProt P10721); assay: AlphaScreen kinase assay, Kit; conditions: read-out: IC50, activity toward kinase Kit
T11 construct: P1332.N6 BI PTP KIT M552-K948-X COD; His6 (N); made in house; host or cells: E. coli (PTP1B co-expressed)
T11 sequence (P10721 with tags, fused parts or gaps): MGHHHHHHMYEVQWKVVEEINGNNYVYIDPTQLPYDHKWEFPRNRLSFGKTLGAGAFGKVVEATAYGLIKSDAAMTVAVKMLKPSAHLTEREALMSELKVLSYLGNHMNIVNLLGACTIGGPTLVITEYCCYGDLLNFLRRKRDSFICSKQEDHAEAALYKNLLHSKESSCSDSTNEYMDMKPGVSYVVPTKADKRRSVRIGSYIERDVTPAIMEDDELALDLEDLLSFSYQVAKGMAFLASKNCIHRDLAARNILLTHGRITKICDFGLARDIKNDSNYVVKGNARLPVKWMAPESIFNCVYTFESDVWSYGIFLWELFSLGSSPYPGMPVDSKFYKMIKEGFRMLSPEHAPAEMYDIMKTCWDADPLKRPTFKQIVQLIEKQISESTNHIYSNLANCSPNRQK

Pyk2 = molecular target: T12, Pyk2 (Homo sapiens, UniProt Q14289); assay: AlphaScreen kinase assay, Pyk2; conditions: read-out: IC50, activity toward kinase Pyk2
T12 construct: purchased Upstate Biotechnology
Procedure: (§3) AlphaScreen assays were done using compounds dissolved in DMSO to a concentration of 20 mM. The compounds were diluted accordingly to the desired final concentrations in each sample well, using 1:3 serial dilution for a total of 8 concentration points. Plates were prepared such that each kinase reaction is 20 μl in 1× kinase buffer, 5% DMSO and 10 μM ATP. After incubation of the kinase reaction for 1 hour at room temperature, 5 μl of donor beads in stop buffer (50 mM EDTA in 1× kinase buffer) was added, the sample was mixed and incubated for 20 minutes at room temperature before adding 5 μl of acceptor beads in stop buffer. The samples were incubated for 60 minutes at room temperature and the signal per well was read on AlphaQuest reader.

Src = molecular target: T13, Src (Homo sapiens, UniProt P12931); assay: AlphaScreen kinase assay, Src; conditions: read-out: IC50, activity toward kinase Src
T13 construct: P1144. pET-N6 BI-PTP SRC V86-L536-X; made in house

MAP4K4 = MAP4K4 (Homo sapiens, UniProt O95819); assay: AlphaScreen kinase assay, MAP4K4; conditions: read-out: IC50, activity toward kinase MAP4K4
B-Raf = molecular target: T14, B-Raf (Homo sapiens, UniProt P15056); assay: AlphaScreen kinase assay, B-Raf; conditions: read-out: IC50, activity toward kinase B-Raf
T14 construct: purchased Upstate Biotechnology

c-Raf-1 = molecular target: T15, c-Raf-1 (Homo sapiens, UniProt P04049); assay: AlphaScreen kinase assay, c-Raf-1; conditions: read-out: IC50, activity toward kinase c-Raf-1
T15 construct: purchased Upstate Biotechnology
T15 sequence (P04049 whole entry): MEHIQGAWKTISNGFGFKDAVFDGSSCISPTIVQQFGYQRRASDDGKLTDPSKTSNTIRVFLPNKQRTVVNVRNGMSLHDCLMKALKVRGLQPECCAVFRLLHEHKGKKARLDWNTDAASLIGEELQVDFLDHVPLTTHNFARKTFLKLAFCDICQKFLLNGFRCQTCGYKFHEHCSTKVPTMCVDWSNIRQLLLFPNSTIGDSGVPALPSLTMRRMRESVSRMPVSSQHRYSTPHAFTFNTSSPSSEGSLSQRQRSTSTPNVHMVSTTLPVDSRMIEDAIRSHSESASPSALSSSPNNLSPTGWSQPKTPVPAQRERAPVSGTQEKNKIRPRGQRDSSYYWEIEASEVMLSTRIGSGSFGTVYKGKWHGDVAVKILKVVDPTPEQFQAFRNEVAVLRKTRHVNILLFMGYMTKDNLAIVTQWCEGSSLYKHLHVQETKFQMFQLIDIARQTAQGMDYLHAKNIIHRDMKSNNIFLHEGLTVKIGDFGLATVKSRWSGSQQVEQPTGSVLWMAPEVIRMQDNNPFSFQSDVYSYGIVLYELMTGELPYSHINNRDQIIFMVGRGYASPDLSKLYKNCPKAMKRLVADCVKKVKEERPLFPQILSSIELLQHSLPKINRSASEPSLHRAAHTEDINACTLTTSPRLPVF

Flt1 = molecular target: T16, Flt1 (Homo sapiens, UniProt P17948); assay: AlphaScreen kinase assay, Flt1; conditions: read-out: IC50, activity toward kinase Flt1
T16 construct: P1826.pETN6 BI-PTP FLT1 M799-D1165-X WT; His6 (N); made in house; host or cells: E. coli (PTP1B co-expressed)
T16 sequence (P17948 with tags, fused parts or gaps): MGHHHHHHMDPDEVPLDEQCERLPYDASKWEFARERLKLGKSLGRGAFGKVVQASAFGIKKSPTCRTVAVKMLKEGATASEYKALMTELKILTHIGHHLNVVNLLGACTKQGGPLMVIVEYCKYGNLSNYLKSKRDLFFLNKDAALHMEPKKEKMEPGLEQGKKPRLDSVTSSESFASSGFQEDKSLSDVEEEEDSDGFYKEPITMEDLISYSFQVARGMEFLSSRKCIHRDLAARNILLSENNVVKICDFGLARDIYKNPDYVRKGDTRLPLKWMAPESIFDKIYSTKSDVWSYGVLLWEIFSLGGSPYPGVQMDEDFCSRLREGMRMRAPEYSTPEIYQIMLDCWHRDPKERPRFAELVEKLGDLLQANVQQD

Fms = molecular target: T17, Fms (Homo sapiens, UniProt P07333); assay: AlphaScreen kinase assay, Fms; conditions: read-out: IC50, activity toward kinase Fms
T17 construct: purchased Upstate Biotechnology
T17 sequence (P07333 20-972): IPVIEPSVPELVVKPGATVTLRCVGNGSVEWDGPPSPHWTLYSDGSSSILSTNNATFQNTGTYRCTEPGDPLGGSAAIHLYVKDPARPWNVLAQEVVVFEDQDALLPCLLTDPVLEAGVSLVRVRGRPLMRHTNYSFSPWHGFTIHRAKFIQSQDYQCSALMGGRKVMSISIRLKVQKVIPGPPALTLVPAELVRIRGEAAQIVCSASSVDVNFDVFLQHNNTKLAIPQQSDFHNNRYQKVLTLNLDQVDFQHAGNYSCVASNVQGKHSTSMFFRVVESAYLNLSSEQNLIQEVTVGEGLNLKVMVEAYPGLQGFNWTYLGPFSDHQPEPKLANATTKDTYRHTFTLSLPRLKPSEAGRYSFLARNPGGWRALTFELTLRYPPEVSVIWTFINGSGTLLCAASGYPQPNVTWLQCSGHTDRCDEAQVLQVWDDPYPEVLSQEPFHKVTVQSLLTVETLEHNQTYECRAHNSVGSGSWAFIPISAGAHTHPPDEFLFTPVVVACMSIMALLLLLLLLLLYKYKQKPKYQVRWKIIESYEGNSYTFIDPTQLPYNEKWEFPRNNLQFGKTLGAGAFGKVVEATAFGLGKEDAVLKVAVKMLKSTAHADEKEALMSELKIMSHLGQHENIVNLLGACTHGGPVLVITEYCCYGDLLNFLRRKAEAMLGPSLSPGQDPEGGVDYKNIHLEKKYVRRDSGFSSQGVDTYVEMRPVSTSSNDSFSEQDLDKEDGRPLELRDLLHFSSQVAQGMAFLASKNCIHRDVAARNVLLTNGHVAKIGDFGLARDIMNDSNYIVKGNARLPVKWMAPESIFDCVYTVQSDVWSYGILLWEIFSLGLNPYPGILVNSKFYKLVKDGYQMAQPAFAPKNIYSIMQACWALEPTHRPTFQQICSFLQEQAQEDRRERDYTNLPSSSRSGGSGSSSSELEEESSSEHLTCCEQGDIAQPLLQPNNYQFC
Procedure: as §3

Fak = molecular target: T18, Fak (Homo sapiens, UniProt Q05397); assay: AlphaScreen kinase assay, Fak; conditions: read-out: IC50, activity toward kinase Fak
T18 construct: P1358.pFastBacHtb FAK S411-Q686-X; His6 with pFastBacHTb leader (TEV site) (N); made in house; host or cells: Sf9 (baculovirus)
T18 sequence (Q05397 411-686): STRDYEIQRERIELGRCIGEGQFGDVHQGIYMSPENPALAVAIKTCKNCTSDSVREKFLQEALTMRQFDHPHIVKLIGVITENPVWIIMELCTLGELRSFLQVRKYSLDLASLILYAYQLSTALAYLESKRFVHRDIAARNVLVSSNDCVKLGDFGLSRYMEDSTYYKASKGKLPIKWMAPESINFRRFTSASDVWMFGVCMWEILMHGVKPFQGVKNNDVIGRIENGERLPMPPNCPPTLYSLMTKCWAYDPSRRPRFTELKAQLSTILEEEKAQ

Jnk1 = molecular target: T19, Jnk1 (Homo sapiens, UniProt P45983); assay: AlphaScreen kinase assay, Jnk1; conditions: read-out: IC50, activity toward kinase Jnk1
T19 construct: purchased Upstate Biotechnology

Measured: IC50

COc1ccc(F)c(C(=O)c2c[nH]c3ncc(-c4cccc(/C=C/C(=O)O)c4)cc23)c1 [Compound P-0047]
≤ 10 µM: Abl | B-Raf V600E | Btk | Jnk3 | Ret | Yes | Zap70

CC(C)(C)c1ccc(Nc2cnc3[nH]ccc3c2)cc1 [Compound P-1023]
≤ 10 µM: Kdr | Met

CCOc1cccc(Cc2c[nH]c3ncc(-c4ccsc4)cc23)c1 [Compound P-0562]
≤ 10 µM: Abl | FGFR1 | Jnk3 | Kdr | Kit | Pyk2 | Src

O=C(NCc1ccccn1)NCc1c[nH]c2ncccc12 [Compound P-0761]
≤ 10 µM: Met | Ret

Cc1cccc(-c2c(CSCc3ccccc3)[nH]c3ncccc23)c1 [Compound P-1132]
≤ 10 µM: Met

Cc1cc(C(=O)c2c[nH]c3ncc(-c4cccnc4)cc23)n(C)n1 [Compound P-0800]
≤ 10 µM: Abl | Kit | MAP4K4

COc1cc(Nc2cnc3[nH]ccc3c2)cc(OC)c1OC [Compound P-1092]
≤ 10 µM: Met

CCCS(=O)(=O)Nc1ccc(F)c(C(=O)c2c[nH]c3ncc(Br)cc23)c1F [Compound P-0773, propane-1-sulfonic acid [3-(5-bromo-1H-pyrrolo[2,3-b]pyridine-3-carbonyl)-2,4-difluoro-phenyl]-amide]
≤ 10 µM: B-Raf | B-Raf V600E | c-Raf-1 | FGFR1 | Flt1 | Fms | Kit | Met

Cc1ccc(Nc2cnc3[nH]ccc3c2)cc1 [Compound P-1037]
≤ 10 µM: Met

COc1cccc(Cc2c[nH]c3nccc(Br)c23)c1 [Compound P-0501]
≤ 10 µM: Abl | Fak | FGFR1 | Fms | Kit | Pyk2 | Ret | Src

Oc1ncc(F)c(Cc2c[nH]c3ncc(-c4ccsc4)cc23)c1F [Compound P-0822]
≤ 10 µM: Jnk3 | Met | Ret

CC(=O)c1cccc(Nc2cnc3[nH]ccc3c2)c1 [Compound P-1008]
≤ 10 µM: B-Raf V600E | FGFR1 | Flt1 | Fms | Jnk1 | Jnk3 | Kit | Met

O=C(Nc1ccccc1)Nc1ccc(Cc2c[nH]c3ncccc23)cc1 [Compound P-0542]
≤ 10 µM: c-Raf-1 | Met | Ret

O=C(c1cccc(Cl)c1F)c1c[nH]c2ncc(-c3cccnc3)cc12 [Compound P-0165, (3-Chloro-2-fluoro-phenyl)-(5-pyridin-3-yl-1H-pyrrolo[2,3-b]pyridin-3-yl)-methanone]
≤ 10 µM: B-Raf | B-Raf V600E | c-Raf-1 | FGFR1 | Jnk3 | Kdr | Met | Ret

COC(=O)COc1ccc(F)c(Cc2c[nH]c3ncc(-c4cccnc4)cc23)c1F [Compound P-1465, [2,4-Difluoro-3-(5-pyridin-3-yl-1H-pyrrolo[2,3-b]pyridin-3-ylmethyl)-phenoxy]-acetic acid methyl ester]
≤ 10 µM: B-Raf V600E | FGFR1 | Flt1 | Fms | Jnk1 | Jnk3 | Kit | Met
